For this experiment, the system named is Na^+-dependent Cl^−/HCO3^− exchanger (NCBE). The experiment is described as follows: Inhibition of the Na+-dependent Cl−/HCO3− exchanger (NCBE) in human endothelial cells (pHi recovery, BCECF fluorescence, FLIPR). The experiment is classed as cell-based. As to conditions: 10 μM. The protocol: Inhibition of the Na^+-dependent Cl^−/HCO3^− exchanger (NCBE) in human endothelial cells
Human endothelial cells (ECV-304) were detached form culture flasks with the aid of trypsin/EDTA buffer (0.05/0.02% in phosphate buffer) and, after centrifugation (100 g, 5 min), taken up in a buffered saline solution (mmol/l: 115 NaCl, 20 NH4Cl, 5 KCl, 1 CaCl2, 1 MgSO4, 20 N-(2-hydroxyethyl)-piperazine-N[…]-2-ethanesulfonic acid (HEPES), 5 glucose and 1 g/l of bovine serum albumin; pH 7.4). This cell suspension was incubated at 37 °C. for 20 min with 5 μM BCECF acetoxymethyl ester. The cells were then washed and resuspended in a sodium- and bicarbonate-free buffer solution (mmol/l: 5 HEPES, 133.8 choline chloride, 4.7 KCl, 1.25 MgCl2, 0.97 K2HPO4, 0.23 KH2PO4, 5 glucose; pH 7.4).
For the subsequent fluorescence measurement in the FLIPR (Fluorescent Imaging Plate Reader), 100 μl of this cell suspension in each case containing 20,000 cells were added by pipette per well of a 96-well microtiter plate and this microtiter plate was centrifuged (100 g, 5 min). In the FLIPR, 100 μl of buffer solution in each case were then removed from a further prepared microtiter plate and added by pipette to each of the 96 wells of the measuring plate. In this case, for a 100% control, i.e. a recovery of the intracellular pH (pHi) by means of the NCBE, a bicarbonate- and sodium-containing buffer solution (mmol/l: 5 HEPES, 93.8 NaCl, 40 NaHCO3, 4.7 KCl, 1.25 CaCl2, 1.25 MgCl2, 0.97 Na2HPO4, 0.23 NaH2PO4, 5 glucose; pH 7.4) which contained 50 μM HOE 642 was used. For a 0% control, i.e. no pHi recovery at all, a bicarbonate-free, sodium-containing buffer solution (mmol/l: 5 HEPES, 133.8 NaCl, 4.7 KCl, 1.25 CaCl2, 1.25 MgCl2, 0.97 Na2HPO4, 0.23 NaH2PO4, 5 glucose; pH 7.4) to which 50 μM HOE 642 were also added was employed. The compounds according to the invention were added in various concentrations of the sodium- and bicarbonate-containing solution. After addition of the buffer solutions to the dye-loaded acidified cells situated in the measuring plate, the increase in the fluorescence intensity which corresponded to an increase in the pHi was determined in each well of the microtiter plate.
The kinetics were in this case recorded at 35° C. over a period of 2 minutes. The increase in the fluorescence intensities for different concentrations of the compounds according to the invention was related to the two controls and from this the inhibitory action of the substances was determined.
On to `COc1ccc(CN(Cc2ccc(-c3ccccc3S(=O)(=O)NC#N)cc2)C(=O)c2ccc(C)cc2)cc1` [Example 70], for which the “Residual activity % of the NCBE at 10 μM” value is 94.7%. To `N#CNS(=O)(=O)c1ccccc1-c1ccc(CN(Cc2ccccc2Cl)C(=O)c2cc3ccccc3s2)cc1` [Example 71] belongs 35.2%; to `CC(C)CN(Cc1ccc(-c2ccccc2S(=O)(=O)NC#N)cc1)C(=O)c1cc2ccccc2s1` [Example 72], 86.3%. To `C[C@@H](c1ccccc1)N(Cc1ccc(-c2ccccc2S(=O)(=O)NC#N)cc1)C(=O)c1cc2ccccc2s1` [Example 73] belongs 61.0%; to `COc1ccccc1CN(Cc1ccc(-c2ccccc2S(=O)(=O)NC#N)cc1)C(=O)c1cc2ccccc2s1` [Example 74], 54.7%. Turning to `Cc1ccc(CN(Cc2ccc(-c3ccccc3S(=O)(=O)NC#N)cc2)C(=O)c2cc3ccccc3s2)cc1` [Example 75], the “Residual activity % of the NCBE at 10 μM” value was determined as 80.3%.

With `COc1cccc(CN(Cc2ccc(-c3ccccc3S(=O)(=O)NC#N)cc2)C(=O)c2cc3ccccc3s2)c1` [Example 76], the “Residual activity % of the NCBE at 10 μM” value was found to be 87.3%. For the molecule `N#CNS(=O)(=O)c1ccccc1-c1ccc(CN(Cc2ccc3c(c2)OCO3)C(=O)c2cc3ccccc3s2)cc1` [Example 77], the “Residual activity % of the NCBE at 10 μM” value amounted to 81.8%.

As for `C[C@H](c1ccccc1)N(Cc1ccc(-c2ccccc2S(=O)(=O)NC#N)cc1)C(=O)c1cc2ccccc2s1` [Example 78], the “Residual activity % of the NCBE at 10 μM” value is on record as 88.5%. Turning to `N#CNS(=O)(=O)c1ccccc1-c1ccc(CN(Cc2ccc(C(F)(F)F)cc2)C(=O)c2cc3ccccc3s2)cc1` [Example 79], the “Residual activity % of the NCBE at 10 μM” value is on record as 61.7%.

On to `COc1ccc(CCN(Cc2ccc(-c3ccccc3S(=O)(=O)NC#N)cc2)C(=O)c2cc3ccccc3s2)cc1` [Example 80], for which the “Residual activity % of the NCBE at 10 μM” value amounted to 66.7%. To `N#CNS(=O)(=O)c1ccccc1-c1ccc(CN(Cc2ccccc2Cl)C(=O)c2cccs2)cc1` [Example 81] belongs 36.0%; to `CC(C)CN(Cc1ccc(-c2ccccc2S(=O)(=O)NC#N)cc1)C(=O)c1cccs1` [Example 82], 99.8%.

Regarding `C[C@@H](c1ccccc1)N(Cc1ccc(-c2ccccc2S(=O)(=O)NC#N)cc1)C(=O)c1cccs1` [Example 83], the “Residual activity % of the NCBE at 10 μM” value is 97.5%.

For `COc1ccccc1CN(Cc1ccc(-c2ccccc2S(=O)(=O)NC#N)cc1)C(=O)c1cccs1` [Example 84], the “Residual activity % of the NCBE at 10 μM” value came out at 54.7%. To `Cc1ccc(CN(Cc2ccc(-c3ccccc3S(=O)(=O)NC#N)cc2)C(=O)c2cccs2)cc1` [Example 85] belongs 51.1%. To `COc1cccc(CN(Cc2ccc(-c3ccccc3S(=O)(=O)NC#N)cc2)C(=O)c2cccs2)c1` [Example 86] belongs 57.0%; to `N#CNS(=O)(=O)c1ccccc1-c1ccc(CN(Cc2ccc3c(c2)OCO3)C(=O)c2cccs2)cc1` [Example 87], 54.8%.

As for `N#CNS(=O)(=O)c1ccccc1-c1ccc(CN(Cc2ccc(C(F)(F)F)cc2)C(=O)c2cccs2)cc1` [Example 89], the “Residual activity % of the NCBE at 10 μM” value was 67.6%. Regarding `COc1ccc(CCN(Cc2ccc(-c3ccccc3S(=O)(=O)NC#N)cc2)C(=O)c2cccs2)cc1` [Example 90], the “Residual activity % of the NCBE at 10 μM” value is recorded as 84.2%. To `N#CNS(=O)(=O)c1ccccc1-c1ccc(CN(Cc2ccccc2Cl)C(=O)c2ccccc2F)cc1` [Example 91] belongs 62.7%. For the molecule `C[C@@H](c1ccccc1)N(Cc1ccc(-c2ccccc2S(=O)(=O)NC#N)cc1)C(=O)c1ccccc1F` [Example 93], the “Residual activity % of the NCBE at 10 μM” value is on record as 92.9%. In the case of `COc1ccccc1CN(Cc1ccc(-c2ccccc2S(=O)(=O)NC#N)cc1)C(=O)c1ccccc1F` [Example 94] it was 87.7%. In the case of `Cc1ccc(CN(Cc2ccc(-c3ccccc3S(=O)(=O)NC#N)cc2)C(=O)c2ccccc2F)cc1` [Example 95] it was 74.7%; in that of `C[C@H](c1ccccc1)N(Cc1ccc(-c2ccccc2S(=O)(=O)NC#N)cc1)C(=O)c1ccccc1F` [Example 98], 98.0%; in that of `N#CNS(=O)(=O)c1ccccc1-c1ccc(CN(Cc2ccc(C(F)(F)F)cc2)C(=O)c2ccccc2F)cc1` [Example 99], 89.6%.

As to `COc1ccc(CCN(Cc2ccc(-c3ccccc3S(=O)(=O)NC#N)cc2)C(=O)c2ccccc2F)cc1` [Example 100], the “Residual activity % of the NCBE at 10 μM” value was determined as 94.1%. In the case of `N#CNS(=O)(=O)c1ccccc1-c1ccc(CN(Cc2ccccc2Cl)C(=O)c2ccccc2Cl)cc1` [Example 101] it was 62.6%; in that of `COc1cccc(CN(Cc2ccc(-c3ccccc3S(=O)(=O)NC#N)cc2)C(=O)c2ccccc2Cl)c1` [Example 106], 98.9%.

With `N#CNS(=O)(=O)c1ccccc1-c1ccc(CN(Cc2ccc3c(c2)OCO3)C(=O)c2ccccc2Cl)cc1` [Example 107], the “Residual activity % of the NCBE at 10 μM” value came to 96.4%. To `C[C@H](c1ccccc1)N(Cc1ccc(-c2ccccc2S(=O)(=O)NC#N)cc1)C(=O)c1ccccc1Cl` [Example 108] belongs 87.7%; to `N#CNS(=O)(=O)c1ccccc1-c1ccc(CN(Cc2ccc(C(F)(F)F)cc2)C(=O)c2ccccc2Cl)cc1` [Example 109], 75.4%; to `N#CNS(=O)(=O)c1ccccc1-c1ccc(CN(Cc2ccccc2Cl)C(=O)C(c2ccccc2)c2ccccc2)cc1` [Example 111], 80.5%. To `CC(C)CN(Cc1ccc(-c2ccccc2S(=O)(=O)NC#N)cc1)C(=O)C(c1ccccc1)c1ccccc1` [Example 112] belongs 90.4%. To `C[C@@H](c1ccccc1)N(Cc1ccc(-c2ccccc2S(=O)(=O)NC#N)cc1)C(=O)C(c1ccccc1)c1ccccc1` [Example 113] belongs 94.6%; to `COc1ccccc1CN(Cc1ccc(-c2ccccc2S(=O)(=O)NC#N)cc1)C(=O)C(c1ccccc1)c1ccccc1` [Example 114], 81.7%. Take `Cc1ccc(CN(Cc2ccc(-c3ccccc3S(=O)(=O)NC#N)cc2)C(=O)C(c2ccccc2)c2ccccc2)cc1` [Example 115]: the “Residual activity % of the NCBE at 10 μM” value stood at 84.0%.

With `C[C@H](c1ccccc1)N(Cc1ccc(-c2ccccc2S(=O)(=O)NC#N)cc1)C(=O)C(c1ccccc1)c1ccccc1` [Example 118], the “Residual activity % of the NCBE at 10 μM” value worked out at 95.3%. In the case of `N#CNS(=O)(=O)c1ccccc1-c1ccc(CN(Cc2ccc(C(F)(F)F)cc2)C(=O)C(c2ccccc2)c2ccccc2)cc1` [Example 119] it was 75.7%; in that of `COc1ccc(CCN(Cc2ccc(-c3ccccc3S(=O)(=O)NC#N)cc2)C(=O)C(c2ccccc2)c2ccccc2)cc1` [Example 120], 81.3%; in that of `N#CNS(=O)(=O)c1ccccc1-c1ccc(CN(Cc2ccccc2Cl)C(=O)Cc2ccccc2)cc1` [Example 121], 72.1%. With `CC(C)CN(Cc1ccc(-c2ccccc2S(=O)(=O)NC#N)cc1)C(=O)Cc1ccccc1` [Example 122], the “Residual activity % of the NCBE at 10 μM” value is on record as 90.6%. To `C[C@@H](c1ccccc1)N(Cc1ccc(-c2ccccc2S(=O)(=O)NC#N)cc1)C(=O)Cc1ccccc1` [Example 123] belongs 72.2%; to `COc1ccccc1CN(Cc1ccc(-c2ccccc2S(=O)(=O)NC#N)cc1)C(=O)Cc1ccccc1` [Example 124], 46.5%; to `Cc1ccc(CN(Cc2ccc(-c3ccccc3S(=O)(=O)NC#N)cc2)C(=O)Cc2ccccc2)cc1` [Example 125], 63.6%. For `COc1cccc(CN(Cc2ccc(-c3ccccc3S(=O)(=O)NC#N)cc2)C(=O)Cc2ccccc2)c1` [Example 126], the “Residual activity % of the NCBE at 10 μM” value was determined as 53.7%. In the case of `N#CNS(=O)(=O)c1ccccc1-c1ccc(CN(Cc2ccc3c(c2)OCO3)C(=O)Cc2ccccc2)cc1` [Example 127] it was 61.7%; in that of `C[C@H](c1ccccc1)N(Cc1ccc(-c2ccccc2S(=O)(=O)NC#N)cc1)C(=O)Cc1ccccc1` [Example 128], 61.4%.

The values are drawn from patent US6369069B1 (Aventis Pharma Deutschland GmbH, priority 1998, dated 2002).
